Assay results: ChEMBL document CHEMBL3885881, “DrugMatrix”

Species on record: Rattus norvegicus
Experiment: DrugMatrix - Regimen: Daily Repeat
Type: toxicity, organism-based, Sprague-Dawley
Set-up: regimen Daily Repeat, gender Male, age 6-8 weeks
Conditions: in vivo, sc, 120 h, route subcutaneous, time 5 day, vehicle 100 % SALINE; for ABSOLUTE BASOPHIL / ABSOLUTE EOSINOPHIL / ABSOLUTE LYMPHOCYTE / ABSOLUTE MONOCYTE / ABSOLUTE SEGMENTED NEUTROPHIL / BASOPHIL / EOSINOPHIL / ERYTHROCYTE COUNT / HEMATOCRIT / HEMOGLOBIN / LEUKOCYTE COUNT / LYMPHOCYTE / MEAN CORPUSCULAR HEMOGLOBIN / MEAN CORPUSCULAR HEMOGLOBIN CONCENTRATION / MEAN CORPUSCULAR VOLUME / MONOCYTE / NEUTROPHIL / NUCLEATED RED BLOOD CELLS / PLATELET COUNT: tissue Blood
[1] = 0 mg/kg, tissue Plasma, dose level Control

Compound: CC(N)Cc1c[nH]c2ccc(OCc3cccs3)cc12 (configuration not stated) [BW-723C86]
- ABSOLUTE BASOPHIL (0 mg/kg, dose level Control): 0 CELLS/uL
- ABSOLUTE EOSINOPHIL (0 mg/kg, dose level Control): 0 CELLS/uL
- ABSOLUTE LYMPHOCYTE (0 mg/kg, dose level Control): 5956.67 CELLS/uL
- ABSOLUTE MONOCYTE (0 mg/kg, dose level Control): 0 CELLS/uL
- ABSOLUTE SEGMENTED NEUTROPHIL (0 mg/kg, dose level Control): 510 CELLS/uL
- BASOPHIL (0 mg/kg, dose level Control): 0%
- EOSINOPHIL (0 mg/kg, dose level Control): 0%
- ERYTHROCYTE COUNT (0 mg/kg, dose level Control): 5.39 x10E6/uL
- HEMATOCRIT (0 mg/kg, dose level Control): 32.5%
- HEMOGLOBIN (0 mg/kg, dose level Control): 12.47 G/DL
- LEUKOCYTE COUNT (0 mg/kg, dose level Control): 6.47 x10E3/uL
- LYMPHOCYTE (0 mg/kg, dose level Control): 92%
- MEAN CORPUSCULAR HEMOGLOBIN (0 mg/kg, dose level Control): 23.13 pg
- MEAN CORPUSCULAR HEMOGLOBIN CONCENTRATION (0 mg/kg, dose level Control): 38.37 G/DL
- MEAN CORPUSCULAR VOLUME (0 mg/kg, dose level Control): 60.3 fL
- MONOCYTE (0 mg/kg, dose level Control): 0%
- NEUTROPHIL (0 mg/kg, dose level Control): 8%
- NUCLEATED RED BLOOD CELLS (0 mg/kg, dose level Control): 0.33 /100WBC
- PLATELET COUNT (0 mg/kg, dose level Control): 888 x10E3/uL
- ALANINE AMINOTRANSFERASE [1]: 43.67 u/L
- ALBUMIN [1]: 4.37 G/DL
- ALKALINE PHOSPHATASE [1]: 356 u/L
- ASPARTATE AMINOTRANSFERASE [1]: 74 u/L
- BLOOD UREA NITROGEN [1]: 11 mg/dL
- CARBON DIOXIDE [1]: 32.33 mmol/L
- CHLORIDE [1]: 103.33 MEQ/L
- CHOLESTEROL [1]: 70.67 mg/dL
- CREATINE PHOSPHOKINASE [1]: 195.33 u/L
- CREATININE [1]: 0.16 mg/dL
- GLUCOSE [1]: 161.67 mg/dL
- LACTATE DEHYDROGENASE [1]: 84 u/L
- LIPASE [1]: 9 u/L
- PHOSPHORUS [1]: 12.57 mg/dL
- POTASSIUM [1]: 6.87 MEQ/L
- SODIUM [1]: 147.6 MEQ/L
- TOTAL BILIRUBIN [1]: 0.13 mg/dL
- TOTAL PROTEIN [1]: 6.27 G/DL
- URIC ACID [1]: 1.67 mg/dL
- ABSOLUTE BASOPHIL (10 mg/kg, dose level Low): 0 CELLS/uL
- ABSOLUTE EOSINOPHIL (10 mg/kg, dose level Low): 0 CELLS/uL
- ABSOLUTE LYMPHOCYTE (10 mg/kg, dose level Low): 5627 CELLS/uL
- ABSOLUTE MONOCYTE (10 mg/kg, dose level Low): 73.33 CELLS/uL
- ABSOLUTE SEGMENTED NEUTROPHIL (10 mg/kg, dose level Low): 866.33 CELLS/uL
- BASOPHIL (10 mg/kg, dose level Low): 0%
- EOSINOPHIL (10 mg/kg, dose level Low): 0%
- ERYTHROCYTE COUNT (10 mg/kg, dose level Low): 5.18 x10E6/uL
- HEMATOCRIT (10 mg/kg, dose level Low): 31.03%
- HEMOGLOBIN (10 mg/kg, dose level Low): 12 G/DL
- LEUKOCYTE COUNT (10 mg/kg, dose level Low): 6.57 x10E3/uL
- LYMPHOCYTE (10 mg/kg, dose level Low): 85.33%
- MEAN CORPUSCULAR HEMOGLOBIN (10 mg/kg, dose level Low): 23.2 pg
- MEAN CORPUSCULAR HEMOGLOBIN CONCENTRATION (10 mg/kg, dose level Low): 38.67 G/DL
- MEAN CORPUSCULAR VOLUME (10 mg/kg, dose level Low): 60 fL
- MONOCYTE (10 mg/kg, dose level Low): 1%
- NEUTROPHIL (10 mg/kg, dose level Low): 13.67%
- NUCLEATED RED BLOOD CELLS (10 mg/kg, dose level Low): 0.33 /100WBC
- PLATELET COUNT (10 mg/kg, dose level Low): 1156.33 x10E3/uL
